Literature values as cited in patent publication US20050032876A1, “Pharmaceutical compositions comprising sumatriptan and metoclopramide, and methods of use thereof” (priority 2003, published 2005).

Details: rapidly pre-systemically metabolized; very short half-life of the order of only about 2 hours

In the case of CNS(=O)(=O)Cc1ccc2[nH]cc(CCN(C)C)c2c1 [Sumatriptan], the half-life is given as “about 2 hours”.
